According to ChEMBL document CHEMBL1138720, “Synthesis, (1-->3)-beta-D-glucanase-binding ability and phytoalexin-elicitor activity of (R)-2,3-epoxypropyl (1-->3)-beta-D-pentaglucoside” (Bioorg Med Chem Lett, 2004):

Assays:
[1] = Phytoalexin-elicitor activity in tobacco cotyledon tissue was determined after 44 hrs; assay type: functional, Nicotiana tabacum
[2] = Phytoalexin-elicitor activity in tobacco cotyledon tissue was determined after 66 hrs; assay type: functional, Nicotiana tabacum
[3] = Inactivation of (1-3)-beta-D-glucanase by the compound was determined
[4] = Phytoalexin-elicitor activity in tobacco cotyledon tissue was determined after 22 hrs; assay type: functional, Nicotiana tabacum

EC50 [1]: 80 uM l-1 | EC50 [2]: 160 uM l-1 | K app [3]: 0.000379 min⁻¹ | EC50 [4]: 90 uM l-1
SMILES: OC[C@H]1O[C@@H](O[C@@H]2[C@@H](O)[C@H](O[C@@H]3[C@@H](O)[C@H](O[C@@H]4[C@@H](O)[C@H](O[C@@H]5[C@@H](O)[C@H](OC[C@H]6CO6)O[C@H](CO)[C@H]5O)O[C@H](CO)[C@H]4O)O[C@H](CO)[C@H]3O)O[C@H](CO)[C@H]2O)[C@H](O)[C@@H](O)[C@@H]1O
